Laboratory results from ChEMBL document CHEMBL4665638, “Second Generation Inhibitors of HIV-1 Maturation” (ACS Med Chem Lett, 2019).

What was measured:
[1] = Binding affinity to wild type HIV-1 NL4-3 CA-SP1 cleavage site of Gag-Pol protein assessed as inhibition of HIV-1 maturation in presence of human serum albumin; parameters: species or system Human immunodeficiency virus 1
[2] = Binding affinity to HIV-1 CA-SP1 cleavage site of Gag-pol protein harboring deltaV370 mutant assessed as inhibition of HIV-1 maturation; parameters: species or system Human immunodeficiency virus 1
[3] = test system: Human immunodeficiency virus 1; assay: Ratio of EC50 for wild type HIV-1 NL4-3 CA-SP1 cleavage site of Gag-Pol protein in presence of human serum albumin to EC50 for wild type HIV-1 NL4-3 CA-SP1 cleavage site of Gag-Pol protein
[4] = Binding affinity to wild type HIV-1 NL4-3 CA-SP1 cleavage site of Gag-Pol protein assessed as inhibition of HIV-1 maturation; parameters: species or system Human immunodeficiency virus 1
[5] = Binding affinity to HIV-1 CA-SP1 cleavage site of Gag-Pol protein harboring V370A mutant assessed as inhibition of HIV-1 maturation; parameters: species or system Human immunodeficiency virus 1
[6] = Clearance in rat at 5 mg/kg, po or 1 mg/kg, iv; assay type: ADME, organism-based; conditions: in vivo
[7] = AUC in rat for 6 hrs; assay type: ADME; parameters: time 6 hrs; conditions: in vivo
[8] = Aqueous solubility of the compound; assay type: physicochemical
[9] = Binding affinity to HIV-1 CA-SP1 cleavage site of Gag-Pol protein harboring deltaV370/Thr371Ala mutant assessed as inhibition of HIV-1 maturation; parameters: species or system Human immunodeficiency virus 1
[10] = Binding affinity to HIV-1 CA-SP1 cleavage site of Gag-Pol protein harboring […] mutant assessed as inhibition of HIV-1 maturation; parameters: species or system Human immunodeficiency virus 1
[11] = Binding affinity to HIV-1 CA-SP1 cleavage site of Gag-Pol protein harboring V370M mutant assessed as inhibition of HIV-1 maturation; parameters: species or system Human immunodeficiency virus 1
[12] = AUC in rat at 5 mg/kg, po measured for 6 hrs; assay type: ADME, organism-based; parameters: time 6 hrs, dose 5 mg/kg; conditions: in vivo
[13] = Oral bioavailability in dog; assay type: ADME, organism-based, Canis lupus familiaris; conditions: in vivo
[14] = Binding affinity to HIV-1 CA-SP1 cleavage site of Gag-Pol protein harboring deltaThr371 mutant assessed as inhibition of HIV-1 maturation; parameters: species or system Human immunodeficiency virus 1
[15] = Volume of distribution at steady state in dog; assay type: ADME, Canis lupus familiaris; conditions: in vivo, read-out: Vdss
[16] = Binding affinity to HIV-1 CA-SP1 cleavage site of Gag-Pol protein harboring Thr371Ala mutant assessed as inhibition of HIV-1 maturation; parameters: species or system Human immunodeficiency virus 1
[17] = Volume of distribution at steady state in cynomolgus monkey; assay type: ADME, Macaca fascicularis; conditions: in vivo, read-out: Vdss
[18] = Binding affinity to HIV-1 CA-SP1 cleavage site of Gag-Pol protein harboring V362I mutant assessed as inhibition of HIV-1 maturation; parameters: species or system Human immunodeficiency virus 1
[19] = Oral bioavailability in cynomolgus monkey; assay type: ADME, organism-based, Macaca fascicularis; conditions: in vivo
[20] = Clearance in dog; assay type: ADME, Canis lupus familiaris; conditions: in vivo

Structure (SMILES)	EC50 [1]	EC50 [2]	EC50 [4]	EC50 [5]	further results
C=C(C)[C@@H]1CC[C@]2(CNCCN(C)C)CC[C@]3(C)[C@H](CC[C@@H]4[C@@]5(C)CC=C(c6ccc(C(=O)O)cc6)C(C)(C)[C@@H]5CC[C@]43C)[C@@H]12	9 nM	21 nM	–	–	–
C=C(C)[C@@H]1CC[C@]2(C(=O)NCCN(C)C)CC[C@]3(C)[C@H](CC[C@@H]4[C@@]5(C)CC=C(c6ccc(C(=O)O)cc6)C(C)(C)[C@@H]5CC[C@]43C)[C@@H]12	–	31 nM	–	–	–
C=C(C)[C@@H]1CC[C@]2(C(=O)O)CC[C@]3(C)[C@H](CC[C@@H]4[C@@]5(C)CC=C(c6ccc(C(=O)O)cc6F)C(C)(C)[C@@H]5CC[C@]43C)[C@@H]12	50 nM	–	55 nM	1400 nM	Ratio EC50 [3]: 1
C=C(C)[C@@H]1CC[C@]2(C(=O)NCCNC(C)=O)CC[C@]3(C)[C@H](CC[C@@H]4[C@@]5(C)CC=C(c6ccc(C(=O)O)cc6)C(C)(C)[C@@H]5CC[C@]43C)[C@@H]12	22 nM	361 nM	5 nM	24 nM	–
C=C(C)[C@@H]1CC[C@]2(C(=O)O)CC[C@]3(C)[C@H](CC[C@@H]4[C@@]5(C)CC=C(c6ccc(C(=O)O)cc6)C(C)(C)[C@@H]5CC[C@]43C)[C@@H]12	–	> 3000 nM	–	–	clearance [6]: 1 mL/min/kg; AUC at 6 h [7]: 5.72 µM·h
C=C(C)[C@@H]1CC[C@]2(C(=O)O)CC[C@]3(C)[C@H](CC[C@@H]4[C@@]5(C)CC=C(c6cccc(C(=O)O)c6)C(C)(C)[C@@H]5CC[C@]43C)[C@@H]12	–	–	> 8000 nM	–	–
C=C(C)[C@@H]1CC[C@]2(C(=O)O)CC[C@]3(C)[C@H](CC[C@@H]4[C@@]5(C)CC[C@H](OC(=O)CC(C)(C)C(=O)O)C(C)(C)[C@@H]5CC[C@]43C)[C@@H]12 [BEVIRIMAT]	–	–	–	–	solubility [8]: < 1 µg/mL; clearance [6]: 4 mL/min/kg; EC50 [9]: > 4000 nM; EC50 [10]: 8 nM; EC50 [11]: 111 nM
C=C(C)[C@@H]1CC[C@]2(CNCCCN3CCS(=O)(=O)CC3)CC[C@]3(C)[C@H](CC[C@@H]4[C@@]5(C)CC=C(c6ccc(C(=O)O)cc6)C(C)(C)[C@@H]5CC[C@]43C)[C@@H]12	–	–	–	–	AUC at 6 h [12]: 1.71 µM·h
C=C(C)[C@@H]1CC[C@]2(C(=O)NCCN(CC)CC(=O)O)CC[C@]3(C)[C@H](CC[C@@H]4[C@@]5(C)CC=C(c6ccc(C(=O)O)cc6)C(C)(C)[C@@H]5CC[C@]43C)[C@@H]12	–	64 nM	3 nM	9 nM	–
C=C(C)[C@@H]1CC[C@]2(C(=O)O)CC[C@]3(C)[C@H](CC[C@@H]4[C@@]5(C)CC=C(c6ccc(C(=O)O)cc6Cl)C(C)(C)[C@@H]5CC[C@]43C)[C@@H]12	117 nM	–	114 nM	> 4000 nM	Ratio EC50 [3]: 1
C=C(C)[C@@H]1CC[C@]2(CNCCN3CCS(=O)(=O)CC3)CC[C@]3(C)[C@H](CC[C@@H]4[C@@]5(C)CC=C(c6ccc(C(=O)O)cc6)C(C)(C)[C@@H]5CC[C@]43C)[C@@H]12	–	6 nM	–	–	–
C=C(C)[C@@H]1CC[C@]2(C(=O)O)CC[C@]3(C)[C@H](CC[C@@H]4[C@@]5(C)CC=C(c6ccc(C(=O)O)c(C(=O)O)c6)C(C)(C)[C@@H]5CC[C@]43C)[C@@H]12	–	–	38 nM	212 nM	–
C=C(C)[C@@H]1CC[C@]2(C(=O)NCCC(=O)O)CC[C@]3(C)[C@H](CC[C@@H]4[C@@]5(C)CC=C(c6ccc(C(=O)O)cc6)C(C)(C)[C@@H]5CC[C@]43C)[C@@H]12	449 nM	> 4000 nM	37 nM	427 nM	–
C=C(C)[C@@H]1CC[C@]2(C(=O)NCCC(C)C)CC[C@]3(C)[C@H](CC[C@@H]4[C@@]5(C)CC=C(c6ccc(C(=O)O)cc6)C(C)(C)[C@@H]5CC[C@]43C)[C@@H]12	–	1600 nM	47 nM	101 nM	–
C=C(C)[C@@H]1CC[C@]2(C(=O)NCCN3CCS(=O)(=O)CC3)CC[C@]3(C)[C@H](CC[C@@H]4[C@@]5(C)CC=C(c6ccc(C(=O)O)cc6)C(C)(C)[C@@H]5CC[C@]43C)[C@@H]12	–	60 nM	2 nM	6 nM	AUC at 6 h [12]: 3.99 µM·h
C=C(C)[C@@H]1CC[C@]2(C(=O)N[C@@H](CN(C)C)C(=O)O)CC[C@]3(C)[C@H](CC[C@@H]4[C@@]5(C)CC=C(c6ccc(C(=O)O)cc6)C(C)(C)[C@@H]5CC[C@]43C)[C@@H]12	–	> 160 nM	46 nM	772 nM	–
C=C(C)[C@@H]1CC[C@]2(NCCN3CCS(=O)(=O)CC3)CC[C@]3(C)[C@H](CC[C@@H]4[C@@]5(C)CC=C(c6ccc(C(=O)O)c(F)c6)C(C)(C)[C@@H]5CC[C@]43C)[C@@H]12	13 nM	10 nM	3 nM	–	AUC at 6 h [12]: 25.5 µM·h
C=C(C)[C@@H]1CC[C@]2(NCCN3CCS(=O)(=O)CC3)CC[C@]3(C)[C@H](CC[C@@H]4[C@@]5(C)CC=C(c6ccc(C(=O)O)cc6)C(C)(C)[C@@H]5CC[C@]43C)[C@@H]12 [BMS-955176]	10 nM	13 nM	–	3 nM	bioavailability [13]: 9%; EC50 [14]: 5 nM; solubility [8]: < 1 µg/mL; Vd [15]: 0.43 L/kg; EC50 [16]: 3 nM; Vd [17]: 0.36 L/kg; EC50 [18]: 4 nM; EC50 [9]: 7 nM; bioavailability [19]: 4%; AUC at 6 h [12]: 14.2 µM·h; EC50 [11]: 3 nM; clearance [20]: 0.13 mL/min/kg
C=C(C)[C@@H]1CC[C@]2(CN(C)CCCN3CCS(=O)(=O)CC3)CC[C@]3(C)[C@H](CC[C@@H]4[C@@]5(C)CC=C(c6ccc(C(=O)O)cc6)C(C)(C)[C@@H]5CC[C@]43C)[C@@H]12	–	26 nM	–	–	AUC ([12]; 6 h): 4.834 µM·h
C=C(C)[C@@H]1CC[C@]2(C(=O)O)CC[C@]3(C)[C@H](CC[C@@H]4[C@@]5(C)CC=C(c6ccc(C(=O)O)cc6C)C(C)(C)[C@@H]5CC[C@]43C)[C@@H]12	660 nM	–	613 nM	3900 nM	Ratio EC50 [3]: 1
